Source: publication PMC12751057, “The energy landscape of N-ribosidic bond cleavage catalysed by 2′-deoxynucleoside 5′-phosphate N-hydrolase 1” (Biochemical Journal, 2025)
Changes are numbered by the printed parent chain.

Columns and labels:
[1] = target: T1, 2′-deoxynucleoside 5′-phosphate N-hydrolase 1 (HsDNPH1) (Homo sapiens, UniProt O43598); experiment: single-turnover stopped-flow UV kinetics, k2/k1 ratio from global fit; steady-state hydrolysis; type: biochemical
T1 construct: gene DNPH1
T1 sequence (O43598 2-174): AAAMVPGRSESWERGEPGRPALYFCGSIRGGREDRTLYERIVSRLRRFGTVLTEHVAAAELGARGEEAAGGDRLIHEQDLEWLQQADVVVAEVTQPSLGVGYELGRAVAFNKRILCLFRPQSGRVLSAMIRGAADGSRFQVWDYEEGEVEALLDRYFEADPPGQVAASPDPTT

[2] = target: T2, 2′-deoxynucleoside 5′-phosphate N-hydrolase 1 (HsDNPH1) (Homo sapiens, UniProt O43598, E55Q); experiment: stopped-flow burst and single-turnover kinetics of the purified variant (turnover, k burst); type: biochemical
T2 construct: gene DNPH1
T2 sequence (O43598 2-174 E55Q): T1 sequence (O43598 2-174) with E54Q

[3] = target: T3, 2′-deoxynucleoside 5′-phosphate N-hydrolase 1 (HsDNPH1) (Homo sapiens, UniProt O43598, E104Q); experiment: ITC; also stopped-flow UV binding kinetics (KD app […]) and differential UV spectroscopy
T3 construct: gene DNPH1
T3 sequence (O43598 2-174 E104Q): T1 sequence (O43598 2-174) with E103Q

[4] = target: T1, 2′-deoxynucleoside 5′-phosphate N-hydrolase 1 (HsDNPH1); experiment: steady-state UV inhibition assay, competitive fit; type: biochemical

Row | Structure (SMILES) | Kd [1] [µM] | rate constant [2] [s⁻¹] | Kd [3] [µM] | Ki [4] [µM]
1 | O=c1[nH]c(=O)n([C@H]2C[C@H](O)[C@@H](COP(=O)(O)O)O2)cc1CO [5hmdUMP, 5-hydroxymethyl-2′-deoxyuridine 5′-monophosphate] | 2.36 | 0.270 ± 0.001 | 1.6 ± 0.4 | –
2 | O=P(O)(O)OC[C@H]1OC(O)[C@H](O)[C@@H]1O (stereo partly shown) [ribose 5-phosphate] | – | – | – | 6900 ± 800
